{"source": "patent US20120077734A1", "about": "“Methods and assays for treating conditions in which macrophages play a pathogenic role” (priority 2010, published 2012)", "key": {"MTLn3 tumor": {"system": "MTLn3 tumor", "test": "in vivo needle invasion assay", "set-up": "species or system mice", "conditions": "needle with EGF vs buffer, 4 hours (FIG. 6)", "protocol": "FIG. 6A-6B. WASP is required for macrophage dependent carcinoma cell invasion in vivo. (A) Schematic illustration of in vivo invasion assay. (B) Quantification of the number of cells collected into the needle after 4 hours with EGF or without EGF (buffer) from wildtype, WASP+/− or WASP−/− mice bearing MTLn3 tumor. Cell counting was performed single blinded where the counter was not aware of the genotype of the mice. n=4 independent WT and 4 WASp−/− mice used) Error bars signify SEM. ** p<0.01 compared to buffer and EGF needle in WASP−/− mice.\nThe presence and absence of WASP in tumors was further characterized to determine the precise defect in the absence of WASP that led to reduced metastasis. […] Carcinoma cell invasiveness in the tumor was monitored and analyzed using a well established in vivo needle invasion assay that mimics the invasion of carcinoma cells into a blood vessel, according to Wyckoff et al. (Wyckoff, Segall et al. 2000). […] Additionally, a reduction was also observed in the motility of carcinoma cells in the tumors of WASP deficient mice as compared with control mice (FIG. 7)."}, "MTLn3": {"system": "MTLn3", "test": "3D collagen invasion assay of MTLn3 carcinoma cells (macrophage co-culture or BMM conditioned media)", "type": "cell-based", "conditions": "KO CM with exogenously added 25 nM EGF (FIG. 2C)", "description": "FIG. 1A-1D. WASP is required for macrophage-dependent breast carcinoma cell invasion. (A) Schematic illustration of the 3D invasion assay. (B) X-Z reconstruction of confocal images of 3D invasion assay using celltracker green labeled carcinoma cells (MTLn3) cultured on their own or co-cultured with celltracker red labeled primary bone marrow derived macrophages (BMM) isolated from either wild type (WT) or WASP knockout (WASP−/−) mice. Dotted line indicates the arbitrary threshold for measuring invasion at 20 μm (˜2 cell diameter). Quantification of cell tracker dye labeled (C) macrophage and (D) MTLn3 invasion. Fluorescence from cells was recorded at 5 μm step size. Collagen invasion is plotted as fraction of cells where fluorescence intensities above 20 μm are divided by total fluorescence from the entire stack (n=3 mice per genotype, age and sex matched). […]\nFIG. 2A-2C. […] (A) Quantification of the MTLn3 invasion by MTLn3 cells alone, in response to wildtype BMM conditioned media (WT-CM) or conditioned media from WASP deficient mice (+KO CM) p<** 0.01 ***0.001 compared to wild-type macrophage conditioned media (WT CM). (B) Quantification of the MTLn3 invasion by MTLn3 cells alone, with wildtype BMM conditioned media (WT-CM) alone or with control IgG (Ctrl IgG) or with two different neutralizing anti-EGF antibodies generated in goat or rabbit (nEGF-G or nEGF-R). […]"}, "[1]": {"system": "intracellular levels of ATP", "conditions": "non-specific effects; cited from earlier work"}, "N-WASP": {"target": "N-WASP (Homo sapiens, UniProt O00401)", "sequence (O00401 whole entry, species assumed)": "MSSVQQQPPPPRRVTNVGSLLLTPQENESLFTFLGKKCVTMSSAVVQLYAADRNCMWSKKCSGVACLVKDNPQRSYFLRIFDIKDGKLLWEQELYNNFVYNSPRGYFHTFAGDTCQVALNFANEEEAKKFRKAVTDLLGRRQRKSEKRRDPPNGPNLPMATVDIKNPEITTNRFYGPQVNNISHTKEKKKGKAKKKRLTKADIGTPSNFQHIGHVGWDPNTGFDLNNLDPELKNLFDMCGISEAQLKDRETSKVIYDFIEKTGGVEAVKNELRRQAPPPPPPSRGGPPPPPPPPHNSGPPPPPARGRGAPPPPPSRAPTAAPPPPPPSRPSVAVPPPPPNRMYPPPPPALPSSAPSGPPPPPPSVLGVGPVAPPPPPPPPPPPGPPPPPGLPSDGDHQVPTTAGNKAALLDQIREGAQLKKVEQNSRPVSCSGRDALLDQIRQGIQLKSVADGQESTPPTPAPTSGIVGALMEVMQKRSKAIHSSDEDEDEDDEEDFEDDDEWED", "conditions": "Peterson et al., 2004; cited from earlier work"}, "WASP": {"target": "T1, WASP (Homo sapiens, UniProt P42768)", "T1 sequence (P42768 1-502)": "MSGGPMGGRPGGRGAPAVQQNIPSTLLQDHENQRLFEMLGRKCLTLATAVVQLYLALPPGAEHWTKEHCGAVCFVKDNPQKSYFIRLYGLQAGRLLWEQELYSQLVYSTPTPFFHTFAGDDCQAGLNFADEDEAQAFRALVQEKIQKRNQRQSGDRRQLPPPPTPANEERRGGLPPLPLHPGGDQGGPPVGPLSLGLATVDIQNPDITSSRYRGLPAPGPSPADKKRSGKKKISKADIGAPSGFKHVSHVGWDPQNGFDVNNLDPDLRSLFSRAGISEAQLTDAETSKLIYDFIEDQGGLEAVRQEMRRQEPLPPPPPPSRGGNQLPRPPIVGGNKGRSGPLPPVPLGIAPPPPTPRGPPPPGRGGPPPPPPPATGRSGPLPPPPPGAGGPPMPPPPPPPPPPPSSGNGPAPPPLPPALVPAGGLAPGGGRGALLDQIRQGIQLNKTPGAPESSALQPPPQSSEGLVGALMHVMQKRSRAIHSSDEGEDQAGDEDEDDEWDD", "conditions": "cited from earlier work"}}, "data": [{"compound": "EGF: epidermal growth factor, carcinoma cell chemoattractant (NSDSECPLSHDGYCLHDGVCMYIEALDKYACNCVVGYIGERCQYRDLKWWELR; UniProt P01133 971-1023, looked up)", "values": [{"measurement": "number of carcinoma cells collected into needle", "setting": "MTLn3 tumor; tumor bearing WASP-deficient mice", "value": "no difference in the number of cells collected"}, {"measurement": "number of carcinoma cells collected into needle", "setting": "MTLn3 tumor; tumor bearing control mice", "value": "significantly enhanced the number of carcinoma cells collected into a needle"}, {"measurement": "MTLn3 invasion with WASP deficient BMM conditioned media", "setting": "MTLn3", "value": "restored carcinoma cell invasion"}]}, {"compound": "CN(C)C[C@H](O)Cn1c2ccc(Br)cc2c2cc(Br)ccc21", "note": "(racemic) [wiskostatin]", "values": [{"measurement": "intracellular levels of ATP", "setting": "[1]", "value": "lowers the intracellular levels of ATP"}, {"measurement": "inhibition of N-WASP", "setting": "N-WASP", "value": "inhibitor of N-WASP"}, {"measurement": "inhibition of WASP", "setting": "WASP", "value": "also inhibits WASP"}]}]}
